# Laboratory results from US9018248B2, “Fatty acid derivatives of catechins and methods of their use” (Genesis Group Inc., priority 2010, dated 2015).
# How the values were obtained:
# iNOS = iNOS protein expression in LPS-stimulated RAW 264.7 macrophages (western blot); type: cell-based, murine; details: LPS 100 ng/ml, RAW 264.7, western blot; 20 and 40 μM for 1a-1c
# Protocol: RAW 264.7 cells were cultured in Rosewell Park Memorial Institute (RPMI) 1640 media (without phenol red) supplemented with 10% endotoxin-free, heat-inactivated fetal calf serum, 100 units/ml penicillin, and 100 μg/ml streptomycin. When the cells reached a density of 2-3×10^6 cells/ml, they were activated by incubation in a medium containing E. coli lipopolysaccharide (LPS) (100 ng/ml). Various concentrations of compounds of the disclosure in dimethyl sulphoxide (DMSO) were added together with LPS. Cells were treated with 0.05% DMSO as the vehicle control. The stimulated murine macrophage cell line RAW 264.7 cells were washed with PBS and lysed in an ice-cold RIPA buffer (Tris-HCl, pH 7.2, 25 mM; 0.1% SDS; 1% Triton X-100; 1% sodium deoxycholate; 0.15 M NaCl; 1 mM EDTA) containing 1 mM phenylmethyl sulphonyl fluoride (PMSF), 10 μg/mL aprotinin, 1 mM sodium ortho-vanadate, and 5 μg/mL leupeptin. Protein concentrations were determined using the BCA method (Pierce, Rockford, Ill.). The samples (50 μg of protein) were mixed with 5-fold of sample buffer containing 0.3 M Tris-HCl (pH 6.8), 25% 2-mercaptoethanol, 12% sodium dodecyl sulphate (SDS), 25 mM EDTA, 20% glycerol, and 0.1% bromophenol blue. The mixtures were boiled at 100° C. for 5 min, prerun on a stacking gel, and then resolved by 12% SDS-polyacrylamide minigels at a constant current of 20 mA. For western blot, proteins on the gel were electro-transferred onto a […] immobile polyvinylidene fluoride (PVDF) membrane with a transfer buffer composed of 25 mM Tris-HCl (pH 8.9), 192 mM glycine, and 20% methanol, as described by Pan et al. (2000). […] The densities of the bands were quantitated using a densitometer (AlphaImager 2200 System). […] (7b) Inhibition Against LPS-Induced NO Production in RAW 264.7 Macrophage The LPS-induced NO production by the macrophages was determined as nitrite concentration in the culture medium according to the Griess reaction. […] The absorbance of the mixture at 550 nm was measured with an ELISA plate reader (Dynatech MR-7000; Dynatech Laboratories, Chantilly, Va., USA). […]
# COX-2 = COX-2 protein expression in LPS-stimulated RAW 264.7 macrophages (western blot); type: cell-based, murine; details: LPS 100 ng/ml, RAW 264.7, western blot
# Protocol: RAW 264.7 cells were cultured in Rosewell Park Memorial Institute (RPMI) 1640 media (without phenol red) supplemented with 10% endotoxin-free, heat-inactivated fetal calf serum, 100 units/ml penicillin, and 100 μg/ml streptomycin. When the cells reached a density of 2-3×10^6 cells/ml, they were activated by incubation in a medium containing E. coli lipopolysaccharide (LPS) (100 ng/ml). Various concentrations of compounds of the disclosure in dimethyl sulphoxide (DMSO) were added together with LPS. Cells were treated with 0.05% DMSO as the vehicle control. The stimulated murine macrophage cell line RAW 264.7 cells were washed with PBS and lysed in an ice-cold RIPA buffer (Tris-HCl, pH 7.2, 25 mM; 0.1% SDS; 1% Triton X-100; 1% sodium deoxycholate; 0.15 M NaCl; 1 mM EDTA) containing 1 mM phenylmethyl sulphonyl fluoride (PMSF), 10 μg/mL aprotinin, 1 mM sodium ortho-vanadate, and 5 μg/mL leupeptin. Protein concentrations were determined using the BCA method (Pierce, Rockford, Ill.). The samples (50 μg of protein) were mixed with 5-fold of sample buffer containing 0.3 M Tris-HCl (pH 6.8), 25% 2-mercaptoethanol, 12% sodium dodecyl sulphate (SDS), 25 mM EDTA, 20% glycerol, and 0.1% bromophenol blue. The mixtures were boiled at 100° C. for 5 min, prerun on a stacking gel, and then resolved by 12% SDS-polyacrylamide minigels at a constant current of 20 mA. For western blot, proteins on the gel were electro-transferred onto a […] immobile polyvinylidene fluoride (PVDF) membrane with a transfer buffer composed of 25 mM Tris-HCl (pH 8.9), 192 mM glycine, and 20% methanol, as described by Pan et al. (2000). Membrane blocking was then carried out at room temperature for 1 h in blocking solution (20 mM Tris-HCl pH 7.4, 125 mM NaCl, 0.2% Tween 20, 1% bovine serum albumin, and 0.1% sodium azide). The membrane was incubated with the primary antibody of iNOS and COX-2 at 4° C. overnight. The membranes were subsequently probed with selected IgG antibody conjugated to horseradish peroxidase (Transduction Laboratories, Lexington, Ky.) and visualized using enhanced chemiluminescence (ECL, Amersham). The densities of the bands were quantitated using a densitometer (AlphaImager 2200 System). All the membranes were stripped and reprobed for β-actin (Sigma Chemical Co., St. Louis, Mo.) as loading control. […] The inhibition of iNOS induction by compounds of the disclosure may be due to down regulation of iNOS gene expression. EGCG and compounds of the disclosure with antioxidant activities may inhibit the ROS/RNS-mediated activation of NF-κB, the transcription factor that promotes gene expression of iNOS. […] The difference in their ability to inhibit production of iNOS and COX-2 may be due to other mechanisms involved in addition to blocking the NF-κB signalling pathway. EGCG and its derivatives may also suppress the cytokine production by breaking down the mRNA and protein of iNOS and COX-2 to varied degrees. (7b) Inhibition Against LPS-Induced NO Production in RAW 264.7 Macrophage The LPS-induced NO production by the macrophages was determined as nitrite concentration in the culture medium according to the Griess reaction. The culture medium of the control and treated cells was collected and centrifuged. An aliquot (100 μL) of the supernatant was mixed with an equal volume of Griess reagent. The absorbance of the mixture at 550 nm was measured with an ELISA plate reader (Dynatech MR-7000; Dynatech Laboratories, Chantilly, Va., USA). […]
# [1] = test system: LPS-induced NO production; test: LPS-induced NO production in RAW 264.7 macrophage (Griess reaction); type: cell-based, murine; details: LPS-stimulated RAW264.7 macrophages
# Protocol: RAW 264.7 cells were cultured in Rosewell Park Memorial Institute (RPMI) 1640 media (without phenol red) supplemented with 10% endotoxin-free, heat-inactivated fetal calf serum, 100 units/ml penicillin, and 100 μg/ml streptomycin. When the cells reached a density of 2-3×10^6 cells/ml, they were activated by incubation in a medium containing E. coli lipopolysaccharide (LPS) (100 ng/ml). Various concentrations of compounds of the disclosure in dimethyl sulphoxide (DMSO) were added together with LPS. Cells were treated with 0.05% DMSO as the vehicle control. The stimulated murine macrophage cell line RAW 264.7 cells were washed with PBS and lysed in an ice-cold RIPA buffer (Tris-HCl, pH 7.2, 25 mM; 0.1% SDS; 1% Triton X-100; 1% sodium deoxycholate; 0.15 M NaCl; 1 mM EDTA) containing 1 mM phenylmethyl sulphonyl fluoride (PMSF), 10 μg/mL aprotinin, 1 mM sodium ortho-vanadate, and 5 μg/mL leupeptin. Protein concentrations were determined using the BCA method (Pierce, Rockford, Ill.). The samples (50 μg of protein) were mixed with 5-fold of sample buffer containing 0.3 M Tris-HCl (pH 6.8), 25% 2-mercaptoethanol, 12% sodium dodecyl sulphate (SDS), 25 mM EDTA, 20% glycerol, and 0.1% bromophenol blue. The mixtures were boiled at 100° C. for 5 min, prerun on a stacking gel, and then resolved by 12% SDS-polyacrylamide minigels at a constant current of 20 mA. For western blot, proteins on the gel were electro-transferred onto a […] immobile polyvinylidene fluoride (PVDF) membrane with a transfer buffer composed of 25 mM Tris-HCl (pH 8.9), 192 mM glycine, and 20% methanol, as described by Pan et al. (2000). Membrane blocking was then carried out at room temperature for 1 h in blocking solution (20 mM Tris-HCl pH 7.4, 125 mM NaCl, 0.2% Tween 20, 1% bovine serum albumin, and 0.1% sodium azide). The membrane was incubated with the primary antibody of iNOS and COX-2 at 4° C. overnight. The membranes were subsequently probed with selected IgG antibody conjugated to horseradish peroxidase (Transduction Laboratories, Lexington, Ky.) and visualized using enhanced chemiluminescence (ECL, Amersham). The densities of the bands were quantitated using a densitometer (AlphaImager 2200 System). All the membranes were stripped and reprobed for β-actin (Sigma Chemical Co., St. Louis, Mo.) as loading control. […] The inhibition of iNOS induction by compounds of the disclosure may be due to down regulation of iNOS gene expression. […] (7b) Inhibition Against LPS-Induced NO Production in RAW 264.7 Macrophage The LPS-induced NO production by the macrophages was determined as nitrite concentration in the culture medium according to the Griess reaction. […] The absorbance of the mixture at 550 nm was measured with an ELISA plate reader (Dynatech MR-7000; Dynatech Laboratories, Chantilly, Va., USA). […]
# iNOS mRNA = iNOS mRNA expression in LPS-stimulated RAW264.7 macrophages (RT-PCR); type: cell-based, mouse; details: FIG. 12
# Protocol: (§1) Total RNA was isolated from mouse macrophage RAW264.7 cell using Trizol Reagent according to the manufacturer's instructions. Changes in the steady-state concentration of mRNA in iNOS, COX-2, and β-actin (control) were assessed by RT-PCR. Total RNA (2 μg) was converted to cDNA in a series of standard 10 μl reverse transcription reactions. DNA amplification was carried out in “Ready To Go” PCR Beads. The initial conditions were 95° C. for 5 min. Amplification 30 cycles of iNOS were 95° C. for 40 s, 65° C. for 60 s, and 72° C. for 2 min, followed by a 10 min extension at 72° C. The thermal cycle conditions of COX-2 were initiated at 95° C. for […], then 30 cycles of amplification (94° C. for 45 s, 55° C. for 60 s, and 72° C. for 2 min) were performed followed by 10 min extension at 72° C. The PCR products were separated by electrophoresis on a 1% agarose gel and visualized by ethidium bromide staining. Amplification of β-actin served as a control for sample loading and integrity. PCR was performed on the cDNA using the following sense and antisense primer: iNOS, forward primer 5′-[…]-[…]-3′ (2944-2968), reverse primer 5′-[…]-[…]-3′ (3419-3443); COX-2, forward primer 5′-[…]-[…]-3′ (1094-1117), reverse primer 5′-[…]-3′ (1931-1954); β-actin, forward primer 5′-[…]-3′, reverse primer 5′-[…]-3′. Confirmation of the correct amplicons was obtained by direct DNA sequencing of the PCR products.
# COX-2 mRNA = COX-2 mRNA expression in LPS-stimulated RAW264.7 macrophages (RT-PCR); type: cell-based, mouse; details: FIG. 12
# Protocol: as §1
# PGE2 production = PGE2 production in LPS-stimulated RAW264.7 macrophages (EIA); type: cell-based, mouse; details: FIG. 10
# Text: The level of PGE2 released into the culture medium was quantified by a specific enzyme immunoassay (EIA) method using a ACE™ EIA kit according to the manufacturer's instructions. FIG. 10 illustrates that the production of the inflammatory mediator PGE2 was inhibited by 10a (EGCG-DPA). The EGCG ester 10a has improved lipophilicity and cellular absorption, and therefore provides synergistic effects with respect to the DPA (a competitive inhibitor against the omega-6 fatty acid arachidonic acid) for the COX enzymes) and EGCG (COX-2 inhibitor) moieties.
substance,measurement,setting,value
EGCG-docosapentaenoate [Compound 10a],Inhibition of iNOS protein expression,iNOS,inhibited
same,Inhibition of COX-2 protein expression,COX-2,inhibited
same,Inhibition of NO production (in words),[1],inhibited by 10a (EGCG-DPA) more effectively than DPA
same,Inhibition of iNOS mRNA expression,iNOS mRNA,inhibited
same,Inhibition of COX-2 mRNA expression,COX-2 mRNA,inhibited
same,Inhibition of PGE2 production,PGE2 production,inhibited
